Assay results published in patent publication US12016858B2, “Methods for the treatment of abnormal involuntary movement disorders” (AUSPEX PHARMACEUTICALS, INC., priority 2015, dated 2024).
Where two headings read alike, the source gives them in different places.

Experiments:
[1] = system: subjects with chorea associated with HD
Procedure: First-HD was a randomized, double-blind, placebo-controlled, parallel-group study designed to evaluate the efficacy, safety, and tolerability of deutetrabenazine in subjects with chorea associated with HD. This trial was conducted in the United States and Canada, in collaboration with the Huntington Study Group.
Subjects in First-HD were treated with deutetrabenazine or placebo, starting at 6 mg once per day and titrating weekly to doses of up to 24 mg twice per day (48 mg total maximum daily dose). A total of 90 subjects (45 in each group) were enrolled for evaluation over 13 weeks. Subjects were individually titrated to an optimal dose over up to eight weeks, received maintenance therapy at the optimal dose for four weeks, and were taken off study medication in the final week of the trial.
The primary efficacy endpoint for the study was the change from baseline to maintenance therapy (average of Week 9 and Week 12 values) in the maximal chorea score of the UHDRS. The total maximal score, or TMC, is a clinician-based, quantitative assessment of chorea in seven body regions: face, mouth/tongue, trunk, and the four extremities, with higher scores representing more severe chorea.
The total motor score (TMS) of the UHDRS was prespecified as an additional efficacy endpoint in First-HD. The TMS assesses all the motor features of HD, including items addressing characteristic motor abnormalities other than chorea, such as dystonia, gait, parkinsonism, and postural instability.
The clinical relevance of the change in the TMC score was assessed with four prespecified secondary endpoints that assessed changes from baseline to end of treatment (Week 12). These secondary endpoints were tested in a hierarchical manner: • 1. Treatment success based on patient global impression of change (PGIC); • 2. Treatment success based on clinical global impression of change (CGIC); • 3. Physical Functioning Scale of the SF-36; and • 4. Balance, as assessed by the Berg Balance Test (BBT).
The PGIC and CGIC are single-item questionnaires that ask the subject and investigator, respectively, to assess a subject's overall HD symptoms at specific visits after initiating therapy. Both assessments use a 7-point Likert Scale, with responses ranging from Very Much Worse (−3) to Very Much Improved (+3) to assess overall response to therapy.
Adverse events (AE) and their potential association with treatment were also monitored. Categories of AEs of particular focus included those known to be associated with tetrabenazine use: • Psychiatric disorders: insomnia, depression/agitated depression, abnormal dreams, agitation, anxiety, suicidal ideation, compulsions, impulsive behavior, and sleep disorders; • Nervous system disorders: somnolence, dizziness, akathisia/restlessness, cognitive disorders, drooling, dyskinesia, migraine, headache, loss of consciousness, and syncope (fainting); • General disorders: irritability, fatigue, gait disturbance, chest pain, and hangover; and • Gastrointestinal disorders: diarrhea, dry mouth, constipation, nausea, upper abdominal pain, dyspepsia, frequent bowel movements, gastrointestinal pain, vomiting, dysphagia, flatulence, and salivary hypersecretion.
In addition to AE reporting, rating scales were used to monitor for potential subclinical toxicity due to excessive monoamine depletion. […] These scales applied in First-HD included the Hospital Anxiety and Depression Scale (HADS), the Columbia Suicide Severity Rating Scale (C-SSRS), the Swallowing Disturbance Questionnaire (SDQ), the Unified Parkinson's Disease Rating Scale (dysarthria item) (UPDRS [dysarthria]), the Barnes Akathisia Rating Scale (BARS), and the Epworth Sleepiness Scale (ESS). In addition, the UHDRS, which includes cognitive, behavioral, and functional measures, was performed at key visits.

[2] = Phase 1 pharmacokinetic comparison of deutetrabenazine and tetrabenazine; format: in vivo, healthy volunteer subjects; settings: 24-mg dose of deutetrabenazine
From the text: The guidance for investigators on conversion of subjects from stable doses of tetrabenazine to deutetrabenazine in the ARC-HD Switch study was designed to minimize the risk that dose conversion would result in either loss of efficacy or increased adverse events. The conversion method applied was based on modeling and simulation of Phase 1 pharmacokinetic data for deutetrabenazine and tetrabenazine. The objective of the pharmacokinetic analysis was to identify an initial dosing regimen of deutetrabenazine predicted to provide exposure at steady state of the active α and β metabolites that was less than or equal to the predicted AUC at steady state of the active alpha and beta metabolites of tetrabenazine, but with a lower Cmax.
In a Phase 1 single-center, open-label, crossover clinical trial, each of 24 healthy volunteer subjects received single doses of 25 mg of tetrabenazine and 15 mg of deutetrabenazine. […]
Subjects in the Switch cohort completed a full screening evaluation. […] The investigator, in consultation with the subject and caregiver, determined when an adequate level of chorea control had been achieved. If a subject experienced a “clinically significant” adverse event attributable to deutetrabenazine, the investigator determined if a dose reduction or suspension was necessary.

[3] = Baseline to Maintenance Therapy, N = 45
[4] = baseline to maintenance therapy
[5] = much or very much improved, Week 12, N = 45

## [2H]C([2H])([2H])Oc1cc2c(cc1OC([2H])([2H])[2H])C1CC(=O)C(CC(C)C)CN1CC2 (stereo not drawn) [deutetrabenazine, (RR, SS)-1,3,4,6,7,11b-hexahydro-9,10-di(methoxy-d3)-3-(2-methylpropyl)-2H-benzo[a]quinolizin-2-one]
[1]; Baseline to Maintenance Therapy (mean of Week 9 and Week 12), N = 45
  Absolute Change in Total Maximal Chorea Score, Least Squares Mean (SD): −4.4 (3.0)
[1]; [3]
  Percentage Change in Total Maximal Chorea Score, Least Squares Mean (SD): −37 (25.7) %
  Total Motor Score change, Least Squares Mean (SD): −7.4 (6.3)
[1]; Baseline to Maintenance Therapy, listed as DTBZ
  Absolute Change in Total Maximal Chorea Score, Difference in Means (DTBZ − Placebo and 95% CI): −2.5 (−3.7, −1.3)
[1]; Baseline to Week 12
  Change in BBT Score, Difference in Means (DTBZ-Placebo): 1.0
  Change in SF-36 Physical Functioning Score, Difference in Means (DTBZ − Placebo) and 95% CI: 4.3
  SF-36 physical functioning score compared with placebo-treated subjects: greater improvement in physical function
[1]; Baseline to Week 12, N = 45
  Change in Berg Balance Test Score, Least Squares Mean: 2.2
  Change in SF-36 Physical Functioning Score, Least Squares Mean (SD): 0.74
[1]; Baseline to Week 12, N = 45, listed as DTBZ
  Change in SF-36 Physical Functioning Score, Least Squares Mean (SD): 0.74 (9.773)
[1]; Baseline to Week 12, listed as DTBZ
  Change in SF-36 Physical Functioning Score, Difference in Means (DTBZ − Placebo) and 95% CI: 4.34 (0.41, 8.27)
[1]; End of Therapy
  CGIC Treatment Success, Difference in Percentages (DTBZ − Placebo) and 95% CI: 29 (11.4, 46.4) %
  PGIC Treatment Success, Difference in Percentages (DTBZ − Placebo) and 95% CI: 31 (12.4, 49.8) %
[1]; N = 45
  Any Nervous System Disorders TEAE: 8 (17.8) n (%)
  Any Psychiatric Disorders TEAE: 8 (17.8) n (%)
  Any Serious TEAEs: 1 (2.2) n (%)
  Any TEAE that led to Withdrawal from the Study: 1 (2.2) n (%)
  Any TEAEs Resulting in Dose Reduction: 3 (6.7) n (%)
  Any TEAEs Resulting in Dose Suspension: 1 (2.2) n (%)
  Any Treatment-Emergent AEs (TEAEs): 60.0 n (%)
  TEAE Abdominal pain upper: 1 (2.2) n (%)
  TEAE Abnormal Dreams: 1 (2.2) n (%)
  TEAE Agitation: 1 (2.2) n (%)
  TEAE Akathisia/Restlessness: 1 (2.2) n (%)
  TEAE Anxiety: 1 (2.2) n (%)
  TEAE Chest pain: 1 (2.2) n (%)
  TEAE Cognitive Disorder: 1 (2.2) n (%)
  TEAE Compulsions: 0 n (%)
  TEAE Constipation: 2 (4.4) n (%)
  TEAE Depression/Agitated Depression: 2 (4.4) n (%)
  TEAE Diarrhea: 4 (8.9) n (%)
  TEAE Dizziness: 2 (4.4) n (%)
  TEAE Drooling: 1 (2.2) n (%)
  TEAE Dry mouth: 4 (8.9) n (%)
  TEAE Dyskinesia: 1 (2.2) n (%)
  TEAE Dyspepsia: 1 (2.2) n (%)
  TEAE Dysphagia: 0 n (%)
  TEAE Fatigue: 3 (6.7) n (%)
  TEAE Flatulence: 0 n (%)
  TEAE Frequent bowel movements: 1 (2.2) n (%)
  TEAE Gait disturbance: 1 (2.2) n (%)
  TEAE Gastrointestinal pain: 1 (2.2) n (%)
  TEAE Hangover: 1 (2.2) n (%)
  TEAE Headache: 0 n (%)
  TEAE Impulsive Behavior: 0 n (%)
  TEAE Insomnia: 3 (6.7) n (%)
  TEAE Irritability: 3 (6.7) n (%)
  TEAE Loss of Consciousness: 0 n (%)
  TEAE Migraine: 1 (2.2) n (%)
  TEAE Nausea: 1 (2.2) n (%)
  TEAE Salivary hypersecretion: 0 n (%)
  TEAE Sleep disorder: 0 n (%)
  TEAE Somnolence: 11.1 n (%)
  TEAE Suicidal Ideation: 1 (2.2) n (%)
  TEAE Syncope: 0 n (%)
  TEAE Vomiting: 0 n (%)
[1]; N = 45, listed as DTBZ
  Any Treatment-Emergent AEs (TEAEs): 27 (60.0) n (%)
  TEAE Somnolence: 5 (11.1) n (%)
[1]; [4]
  Absolute Change in Total Maximal Chorea Score, Difference in Means (DTBZ − Placebo and 95% CI): −2.5
  Percentage Change in Total Maximal Chorea Score, Difference in Means (DTBZ − Placebo and 95% CI): −21 (−30.5, −11.1) %
  TMC improved: 37%
  Total Motor Score change, Difference in Means (DTBZ − Placebo) and 95% CI: −4.0 (−6.5, −1.5)
  improvement in the TMS compared with placebo: 4.0 units
  reduction in maximal chorea compared with placebo: 21 percentage points
  reduction on the TMC score compared with placebo: 2.5 units
  total maximal dystonia score improvement: 0.9 (SE 0.24) points
[1]; difference did not achieve statistical significance
  UHDRS Behavioral Assessment (Part III) mean total behavior score compared with the placebo group: improvement in the in the mean total behavior score
[1]; in vivo
  AEs of parkinsonism or dysphagia: no AEs of parkinsonism or dysphagia were reported
  balance (Berg Balance Test) at end of treatment: did not worsen balance
  changes in the parkinsonism subscore (UHDRS motor) vs placebo: no significant difference
  hypotension, dizziness, or orthostasis (vital signs): no evidence that hypotension, dizziness, or orthostasis was associated
  parkinsonism subscore of the UHDRS Motor Assessment (Part I): did not identify evidence of parkinsonism
  safety scales (HADS, C-SSRS, UPDRS dysarthria, BARS, ESS): did not cause depression, anxiety, suicidality, akathisia, somnolence, or difficulty speaking
  somnolence, drug-placebo difference: 6.7%
  tolerability: generally well tolerated
[1]; [5]
  Clinical Global Impression of Change: Treatment Success at the End of Therapy: 42%
  Patient Global Impression of Change: Treatment Success at the End of Therapy: 51%
[1]; subjects with more severe chorea at baseline (TMC>12; n=49)
  SF-36 physical functioning mean improvement over placebo: 7.1 units
[2]
  peak concentration (Cmax) vs 50 mg of tetrabenazine: lower peak concentration (Cmax)
  systemic exposure (AUC): comparable systemic exposure (AUC) to 50 mg of tetrabenazine
